Experiment [1] deals with T1, human GPBAR1 (Homo sapiens, UniProt Q8TDU6).
T1 construct: expressed in transfected cells; host or cells: HEK-293T
T1 sequence (Q8TDU6 1-330): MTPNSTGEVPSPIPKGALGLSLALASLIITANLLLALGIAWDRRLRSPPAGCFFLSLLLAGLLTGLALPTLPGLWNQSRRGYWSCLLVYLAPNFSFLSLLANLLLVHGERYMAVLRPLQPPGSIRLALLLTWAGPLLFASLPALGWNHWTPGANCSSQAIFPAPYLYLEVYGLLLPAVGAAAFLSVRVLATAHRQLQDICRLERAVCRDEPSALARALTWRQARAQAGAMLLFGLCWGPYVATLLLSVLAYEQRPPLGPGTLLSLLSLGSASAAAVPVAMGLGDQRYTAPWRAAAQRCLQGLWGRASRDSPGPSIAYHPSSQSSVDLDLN
Description: GPBAR1 transactivation (CRE-luciferase) in HEK-293T cells. Type of experiment: cell-based.

Experiment [2] has as its target T2, LIF/LIFR complex (Homo sapiens, UniProt P42702).
T2 construct: purchased Sino Biological (LIFR); R&D Systems (LIF)
T2 sequence (P42702 45-833 limits assumed): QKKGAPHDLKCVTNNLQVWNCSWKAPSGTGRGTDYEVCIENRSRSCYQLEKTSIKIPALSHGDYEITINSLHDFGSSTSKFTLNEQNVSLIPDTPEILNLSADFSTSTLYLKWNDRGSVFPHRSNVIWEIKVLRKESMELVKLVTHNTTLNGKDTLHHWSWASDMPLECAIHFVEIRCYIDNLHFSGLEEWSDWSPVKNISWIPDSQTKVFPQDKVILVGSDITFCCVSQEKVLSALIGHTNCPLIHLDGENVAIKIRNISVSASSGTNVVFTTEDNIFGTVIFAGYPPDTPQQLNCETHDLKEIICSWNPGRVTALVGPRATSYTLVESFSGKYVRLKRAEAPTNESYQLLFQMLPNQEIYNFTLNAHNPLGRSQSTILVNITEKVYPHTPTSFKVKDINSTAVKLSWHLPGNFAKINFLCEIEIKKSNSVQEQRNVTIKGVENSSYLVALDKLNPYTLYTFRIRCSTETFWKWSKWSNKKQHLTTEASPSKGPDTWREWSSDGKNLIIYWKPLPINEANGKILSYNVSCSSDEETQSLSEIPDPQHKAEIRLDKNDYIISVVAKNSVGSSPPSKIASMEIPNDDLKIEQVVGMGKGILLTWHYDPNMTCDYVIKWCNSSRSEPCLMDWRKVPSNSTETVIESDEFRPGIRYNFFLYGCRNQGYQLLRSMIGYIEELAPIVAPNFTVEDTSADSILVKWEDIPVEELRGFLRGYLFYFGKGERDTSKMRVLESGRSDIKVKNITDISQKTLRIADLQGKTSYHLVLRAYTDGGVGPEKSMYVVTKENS
Kind of experiment: Alpha Screen inhibition of LIFR/LIF binding (cell-free). The settings on record: for IC50: cell-free, LIFR 4.5 nM, biotinylated LIF 9 nM, read-out: LIFR IC50 AlphaScreen (inhibition of LIFR/LIF binding). The procedure: Recombinant human LIFR (His Tag) and biotinylated recombinant human LIF were purchased from Sino Biologicals (Sino Biological Europe GmbH, Dusseldorf, Germany) and R&D Systems (Abingdon, UK), respectively, and both were reconstituted as required by the manufacturer. […] The assay was carried out in white, low-volume, 384-well AlphaPlates (PerkinElmer, Waltham, MA, USA) using a final volume of 25 µL and an assay buffer containing 25 mM Hepes (pH 7.4), 100 mM NaCl, and 0.005% Kathon. The concentration of DMSO in each well was maintained at 5%. […] Then, LIF was added (biotinylated, final concentration 9 nM), and the samples were incubated for 15 min prior to adding His-Tag acceptor beads (final concentration 20 ng/µL) for 30 min. Then, streptavidin donor beads were added (final concentration 20 ng/µL), and the plate was incubated in the dark for 2 h and then read in an EnSpire Alpha multimode plate reader (PerkinElmer, Waltham, MA, USA).
(Alpha assays give light when donor and acceptor beads are brought close together.)

In experiment [3] the test system is MIA PaCa-2 cells. Kind of experiment: MTS cell proliferation assay. Type of experiment: cell-based, human. On the procedure:
The cell viability assay was done using the CellTiter 96 Aqueous One Solution Cell Proliferation Assay (Promega, Milano, Italy), a colorimetric method for accessing the number of viable cells in proliferation as described previously ([13]). MIA-PaCa 2 cells were seeded in DMEM complete medium at 36 *10^3 cells/100 uL well into 96-well tissue culture plate. After 24 h, cells were serum starved for 24 h and then were primed with the LIFR major ligand, LIF (10 ng/ml) alone or in combination with BAR502 (5,10 and 20 μM) or only with vehicle. In another experimental setting, MIA-PaCa 2 cells were triggered with PDL103 (10 μM) alone, LIF (10 ng/ml) alone or plus PDL103 or BAR502 (10 μM) or both. In a different setting cell were exposed to an antagonist of the Farnesoid X receptor (FXR), 3-(naphthalen-2-yl)-5-(piperidin-4-yl)-1,2,4-oxadiazole (GP7) (10 µM) ([54]), LIF (10 ng/ml) alone or in combination with GP7 or BAR502 or both. Then cell proliferation assessed as mentioned above. Absorbance was measured using a 96 well reader spectrophotometer (490 nm). In these experiments each experimental setting was replicated ten folds. For analysis the background readings with the medium alone, were subtracted from the samples read-outs.

Several values for one entry are separate records, joined by “and”; a condition that tells them apart may be missing. Equal values may be shown once.

As for `CC[C@H]1[C@@H](O)C2C3CC[C@H]([C@H](C)CCO)[C@@]3(C)CCC2[C@@]2(C)CC[C@@H](O)C[C@@H]12` (stereo partly shown) [BAR502], in experiment [1] (transactivation, agonism, read-out: GPBAR1 EC50 Transact), the EC50 (usually the concentration at which the effect is half-maximal) came to 0.4 ± 0.1 µM. For the same compound, the IC50 in experiment [2] is 3.6 µM and 3.59 µM. Also, in experiment [3] (LIF 10 ng/mL + BAR502 5, 10, 20 µM, 24 h, serum free), the “effect on LIF-induced proliferation (MTS)” value is on record as “reversed the LIF-proliferative effect in a concentration-dependent manner”.
For the compound `OCc1ccc(-c2ccc(OCc3cc(-c4c(Cl)cccc4Cl)no3)cc2)cc1` [PDL103, (4’-((3-(2,6-dichlorophenyl)isoxazol-5-yl)methoxy)-[1,1’-biphenyl]-4-yl)methanol], the IC50 in experiment [1] (Hek293T, transactivation induced by TLCA (10 μM), read-out: Hek293T GPBAR1 Antagonism IC50) was 19 µM; in experiment [2], 97.5 ± 29.3 µM. In experiment [2] (cell-free Alpha Screen), the “effect on LIF/LIFR complex formation (LIFR antagonism), in words” value is “inactive”. Further, in experiment [3] (PDL103 10 μM + BAR502 10 μM + LIF 10 ng/ml), the “effect of PDL103 co-treatment on BAR502 action on LIF/LIFR induced proliferation and EMT” value is recorded as “failed to reverse the effect of BAR502”.

For the origin of these results see article PMC10043345, “Discovery of BAR502, as potent steroidal antagonist of leukemia inhibitory factor receptor for the treatment of pancreatic adenocarcinoma” (Frontiers in Oncology, 2023).
